Results reported in patent publication US20250163072A1, “MACROCYCLIC COMPOUNDS FOR THE TREATMENT OF CANCER” (Hoffmann-La Roche Inc., priority 2021, published 2025).

Tests used:
Format in all cases: cell-based, human
NCI-H358 cells = assay: Cell viability assay, NCI-H358; conditions: Homo sapiens, NCI-H358, 72 hours, Cell Counting Kit-8, read-out: G12C IC50
Description: (§1) The purpose of this cellular assay was to determine the effects of test compounds on the proliferation of human cancer cell lines NCI-H358 (ATCC-CRL5807) cells, AGS (ATCC-CRL-1739) cells, SW620 (ATCC-CCL-227) over a 3-day treatment period by quantifying the amount of NADPH present at endpoint using Cell Counting Kit-8. Cells were seeded at 5,000 cells/well (NCI-H358), 2,000 cells/well (AGS) 2,000 cells/well (SW620) in 96-well assay plates (Corning-3699) and incubated overnight. On the day of the assay, diluted compounds were then added in a final concentration of 0.5% DMSO. After 72 hours incubation, a tenth of the volume of cell counting kit 8(Dnjindo-CK04) was added into each well. Read the signal (OD450 minus OD650) using EnVision after 2 hours incubation. IC50 was determined by fitting a 4-parameter sigmoidal concentration response model.

AGS cells = assay: Cell viability assay, AGS; conditions: Homo sapiens, 72 hours, Cell Counting Kit-8, read-out: G12D IC50
Description: as §1

KRAS G12V in SW620 = assay: pERK inhibition assay, SW620; conditions: Homo sapiens, SW-620, SW620 cells, 4 hours incubation
Description: (§2) This assay is to measure the ability of test compounds in inhibiting the phosphorylation of ERK, the downstream signaling of KRAS G12C in NCI-H358 cells, KRAS G12D in AGS cells, and KRAS G12V in SW620. NCI-H358 (ATCC-CRL5807) cells, AGS (ATCC-CRL-1739) cells, SW620 (ATCC-CCL-227) cells were all grown and maintained using RPMI-1640 medium (Thermo Fisher Scientific) with 10% fetal bovine serum and 1% penicillin/streptomycin. On the day prior to compound addition, cells were plated in tissue culture-treated 96 well plates (Corning-3699) at a density of 30,000 cell/well, 20,000 cell/well, 30,000 cell/well for NCI-H358, AGS and SW620 respectively, and allowed for attachment overnight. Diluted compounds were then added in a final concentration of 0.5% DMSO. After 4 hours of incubation, the medium was removed, 100 μL of 4% formaldehyde was added, and the assay plates were incubated at room temperature for 20 minutes. The plates were then washed once with phosphate buffered saline (PBS), and permeabilized with 100 μL of chilled methanol for 10 minutes. Non-specific antibody binding to the plates was blocked using 50 μL 1×BSA blocking buffer (Thermo-37520, 10-fold dilution by Phosphate-Buffered Saline Tween (PBST) for at least 1 hour at room temperature. The amount of phosphor-ERK was determined using an antibody specific for phosphorylated form of ERK. Primary antibody (pERK, CST-4370, Cell Signaling Technology) was diluted 1:300 in blocking buffer, with 50 μL aliquoted to each well, and incubated overnight at 4° C. Cells were washed five times for 5 minutes with PBST. Secondary antibody (HRP-linked anti-rabbit IgG, CST-7074, Cell Signaling Technology) was diluted 1:1000 in blocking buffer, and 50 μL was added to each well and incubated 1-2 hours at room temperature. Cells were washed 5 times for 5 minutes with PBST, 100 μL TMB ELISA substrate (abcam-ab171523) were added and gently shake for 20 minutes. 50 μL stop solution (abcam-ab171529) were added, and then read the signal (OD450) by EnVision. IC50 was determined by fitting a 4-parameter sigmoidal concentration response model.

KRAS G12D in AGS cells = assay: pERK inhibition assay, AGS; conditions: Homo sapiens, 4 hours incubation
Description: as §2

[1] = system: KRAS G12C in NCI-H358 cells; assay: pERK inhibition assay, NCI-H358; conditions: Homo sapiens, 4 hours incubation
Description: as §2

SW620 cells = assay: Cell viability assay, SW620; conditions: Homo sapiens, SW-620, SW620, 72 hours, Cell Counting Kit-8, read-out: G12V IC50
Description: as §1

Row | IC50 (NCI-H358 cells) | IC50 (AGS cells) | IC50 (KRAS G12V in SW620) | IC50 (KRAS G12D in AGS cells) | IC50 [1] | IC50 (SW620 cells) | SMILES
1 | 797 nM | – | – | – | – | – | C#CCN1CC[C@H](C(=O)N(C)[C@H](C(=O)N[C@H]2Cc3cc(O)cc(c3)-c3ccc4c(c3)c(c(-c3cccnc3[C@H](C)OC)n4CC)CC(C)(C)COC(=O)[C@@H]3CCCN(N3)C2=O)C(C)C)C1 (atropisomer, axis not shown; (M)) [Example 6, (3S)-N-[(1S)-1-[[(8S,14S)-22-ethyl-4-hydroxy-(21M)-21-[2-[(1S)-1-methoxyethyl]-3-pyridyl]-18,18-dimethyl-9,15-dioxo-16-oxa-10,22,28-triazapentacyclo[18.5.2.12,6.110,14.023,27]nonacosa-1(26),2,4,6(29),20,23(27),24-heptaen-8-yl]carbamoyl]-2-methyl-propyl]-N-methyl-1-prop-2-ynyl-pyrrolidine-3-carboxamide]
2 | 142 nM | 1380 nM | 106 nM | 529 nM | 63 nM | 367 nM | C#CC1CN(C(=O)N(C)[C@H](C(=O)N[C@H]2Cc3cc(O)cc(c3)-c3ccc4c(c3)c(c(-c3cccnc3[C@H](C)OC)n4CC)CC(C)(C)COC(=O)[C@@H]3CCCN(N3)C2=O)C(C)C)C1 (atropisomer, axis not shown; (M)) [Example 14, N-[(1S)-1-[[(8S,14S)-22-ethyl-4-hydroxy-(21M)-21-[2-[(1S)-1-methoxyethyl]-3-pyridyl]-18,18-dimethyl-9,15-dioxo-16-oxa-10,22,28-triazapentacyclo[18.5.2.12,6.110,14.023,27]nonacosa-1(26),2,4,6(29),20,23(27),24-heptaen-8-yl]carbamoyl]-2-methyl-propyl]-3-ethynyl-N-methyl-azetidine-1-carboxamide]
3 | 30 nM | – | 51 nM | 297 nM | 42 nM | 162 nM | C#CC1CC(C(=O)N(C)[C@H](C(=O)N[C@H]2Cc3cc(O)cc(c3)-c3ccc4c(c3)c(c(-c3cccnc3[C@H](C)OC)n4CC)CC(C)(C)COC(=O)[C@@H]3CCCN(N3)C2=O)C(C)C)C1 (stereo partly drawn) [Example 4, N-[(1S)-1-[[(8S,14S)-22-ethyl-4-hydroxy-(21M)-21-[2-[(1S)-1-methoxyethyl]-3-pyridyl]-18,18-dimethyl-9,15-dioxo-16-oxa-10,22,28-triazapentacyclo[18.5.2.12,6.110,14.023,27]nonacosa-1(26),2,4,6(29),20,23(27),24-heptaen-8-yl]carbamoyl]-2-methyl-propyl]-3-ethynyl-N-methyl-cyclobutanecarboxamide]

More lines, now with the values behind:

Row | SMILES | IC50 (NCI-H358 cells) | IC50 (AGS cells) | IC50 (KRAS G12V in SW620) | IC50 (KRAS G12D in AGS cells) | IC50 [1] | IC50 (SW620 cells)
4 | CCn1c(-c2cccnc2[C@H](C)OC)c2c3cc(ccc31)-c1cc(O)cc(c1)C[C@H](NC(=O)[C@H](C(C)C)N(C)C(=O)[C@H]1CCN(C(=O)[C@@H](F)Cl)C1)C(=O)N1CCC[C@H](N1)C(=O)OCC(C)(C)C2 (atropisomer, axis not shown; (M)) [Example 1, (3S)-1-[(2S)-2-chloro-2-fluoro-acetyl]-N-[(1S)-1-[[(8S,14S)-22-ethyl-4-hydroxy-(21M)-21-[2-[(1S)-1-methoxyethyl]-3-pyridyl]-18,18-dimethyl-9,15-dioxo-16-oxa-10,22,28-triazapentacyclo[18.5.2.12,6.110,14.023,27]nonacosa-1(26),2,4,6 (29),20,23 (27),24-heptaen-8-yl]carbamoyl]-2-methyl-propyl]-N-methyl-pyrrolidine-3-carboxamide] | 4 nM | – | – | 469 nM | 8 nM | –
5 | CCn1c(-c2cccnc2[C@H](C)OC)c2c3cc(ccc31)-c1cc(O)cc(c1)C[C@H](NC(=O)[C@H](C(C)C)N(C)C(=O)C1CC(C#Cc3ccccn3)C1)C(=O)N1CCC[C@H](N1)C(=O)OCC(C)(C)C2 (stereo partly drawn) [Example 13, N-[(1S)-1-[[(8S,14S)-22-ethyl-4-hydroxy-(21M)-21-[2-[(1S)-1-methoxyethyl]-3-pyridyl]-18,18-dimethyl-9,15-dioxo-16-oxa-10,22,28-triazapentacyclo[18.5.2.12,6.110,14.023,27]nonacosa-1(26),2,4,6(29),20,23(27),24-heptaen-8-yl]carbamoyl]-2-methyl-propyl]-N-methyl-3-[2-(2-pyridyl)ethynyl]cyclobutanecarboxamide] | 66 nM | – | 274 nM | – | 189 nM | 328 nM
6 | CCn1c(-c2cccnc2[C@H](C)OC)c2c3cc(ccc31)-c1csc(n1)C[C@H](NC(=O)[C@H](C(C)C)N(C)C(=O)[C@H]1CCN(C(=O)[C@H](F)Cl)C1)C(=O)N1CCC[C@H](N1)C(=O)OCC(C)(C)C2 (atropisomer, axis not shown; (M)) [Example 17, (3S)-1-[(2R)-2-chloro-2-fluoro-acetyl]-N-[(1S)-1-[[(7S,13S)-21-ethyl-(20M)-20-[2-[(1S)-1-methoxyethyl]-3-pyridyl]-17,17-dimethyl-8,14-dioxo-15-oxa-4-thia-9,21,27,28-tetrazapentacyclo[17.5.2.12,5.19,13.022,26]octacosa-1(25),2,5(28),19,22(26),23-hexaen-7-yl]carbamoyl]-2-methyl-propyl]-N-methyl-pyrrolidine-3-carboxamide] | 6 nM | 1130 nM | 124 nM | – | 23 nM | 449 nM
7 | CCn1c(-c2cccnc2[C@H](C)OC)c2c3cc(ccc31)-c1cc(O)cc(c1)C[C@H](NC(=O)[C@H](C(C)C)N(C)C(=O)[C@H]1CCN(C(=O)C34CC3C4)C1)C(=O)N1CCC[C@H](N1)C(=O)OCC(C)(C)C2 (stereo partly drawn) [Example 11, (3S)-1-(bicyclo[1.1.0]butane-1-carbonyl)-N-[(1S)-1-[[(8S,14S)-22-ethyl-4-hydroxy-(21M)-21-[2-[(1S)-1-methoxyethyl]-3-pyridyl]-18,18-dimethyl-9,15-dioxo-16-oxa-10,22,28-triazapentacyclo[18.5.2.12,6.110,14.023,27]nonacosa-1(26),2,4,6(29),20,23(27),24-heptaen-8-yl]carbamoyl]-2-methyl-propyl]-N-methyl-pyrrolidine-3-carboxamide] | 118 nM | – | 380 nM | 164 nM | 83 nM | 161 nM
8 | CCn1c(-c2cccnc2[C@H](C)OC)c2c3cc(ccc31)-c1cc(O)cc(c1)C[C@H](NC(=O)[C@H](C(C)C)N(C)C(=O)[C@H]1CCN(CC#N)C1)C(=O)N1CCC[C@H](N1)C(=O)OCC(C)(C)C2 (atropisomer, axis not shown; (M)) [Example 7, (3S)-1-(cyanomethyl)-N-[(1S)-1-[[(8S,14S)-22-ethyl-4-hydroxy-(21M)-21-[2-[(1S)-1-methoxyethyl]-3-pyridyl]-18,18-dimethyl-9,15-dioxo-16-oxa-10,22,28-triazapentacyclo[18.5.2.12,6.110,14.023,27]nonacosa-1(26),2,4,6(29),20,23(27),24-heptaen-8-yl]carbamoyl]-2-methyl-propyl]-N-methyl-pyrrolidine-3-carboxamide] | – | – | – | 236 nM | 513 nM | –
9 | CCn1c(-c2cccnc2[C@H](C)OC)c2c3cc(ccc31)-c1cc(O)cc(c1)C[C@H](NC(=O)[C@H](C(C)C)N(C)C(=O)C1CC(C(=O)C=S(C)(C)=O)C1)C(=O)N1CCC[C@H](N1)C(=O)OCC(C)(C)C2 (stereo partly drawn) [Example 8, 3-[2-[dimethyl(oxo)-λ^6-sulfanylidene]acetyl]-N-[(1S)-1-[[(8S,14S)-22-ethyl-4-hydroxy-(21M)-21-[2-[(1S)-1-methoxyethyl]-3-pyridyl]-18,18-dimethyl-9,15-dioxo-16-oxa-10,22,28-triazapentacyclo[18.5.2.12,6.110,14.023,27]nonacosa-1(26),2,4,6(29),20,23(27),24-heptaen-8-yl]carbamoyl]-2-methyl-propyl]-N-methyl-cyclobutanecarboxamide] | – | – | – | – | 436 nM | –
